In publication PMC10878790 (The Journal of Biological Chemistry, 2024):
“Also recorded” adds a separate entry of the source. Square brackets hold non-standard residues; d marks the D form. Peptide text beside a SMILES is read from it.

Experiments:
MDA-MB-231 = assay type: cell-based; details: MTT, 48 hours
Procedure: (§1) MDA-MB-231, MCF-7, DU-145, PC-3, and NIH-3T3 cell lines were procured from the American Type Culture Collection and used within ten consecutive passages to ensure consistent cell behavior. MDA-MB-231, MCF-7, and NIH-3T3 cells were maintained at 37 °C and 5% CO2 in Dulbecco's modified Eagle's medium (DMEM) high glucose (Hyclone) supplemented with 10% fetal bovine serum (FBS) and 1% Antibiotic-Antimycotic (Gibco), while DU-145 and PC-3 cells were grown in RPMI-1640 supplemented with the same concentration of FBS and Antibiotic-Antimycotic. The media was replenished every 2 days. Cells were checked for mycoplasma at regular intervals using a PCR-based Mycoplasma detection kit plasmocin prophylactic (InvivoGen). In all experiments, cells were maintained in serum-free DMEM for 6 h before peptide treatment. Peptide treatment was done in the media containing 0.1% fetal bovine serum for 48 h in all the experiments unless otherwise stated.
(§2) Cell viability was determined by 3-[4,5-dimethylthiazol-2-yl]-2,5 diphenyl tetrazolium bromide (MTT) assay as described earlier ([52]). ProTox-II "Prediction of Toxicity of Chemicals" web server was used for toxicology assessment ([19]). See the Supporting Information for full experimental details.
(§3) Full Experimental Method for Cell Viability Assay:
(§4) Cell viability of murine NIH- 3T3 cells, as well as MDA- MB -231 , MC F-7, PC- 3, and DU-145 cells, wa s assessed through the MT T assay as described previously(1). Approximately
(§5) 5000 cells per well were seeded in a 96-well plate and allowed to incubate overnight for attachment. Following attachment, the growth medium was replaced wit h a fresh medium
(§6) containing serial dilutions of peptides. The cells we re then incubated for 48 hours in a 5% CO2 incubator . After incubation, 10 μl of a 5 mg/mL MT T solution was introduced to each
(§7) well and left to incubate for an additional 2 hours . Subsequently, the entire medium, along wit h the MT T solution, was aspirated, and the remaining formazan crystals were dissolved
(§8) in 200 μl of DMSO. The absorbance was measured at 595 nm using a Biotek Synergy 2 Plate Reader. […]
(§9) ProTox-II "Prediction of Toxicity of Chemicals" we b server was used for toxicology assessment. […]

PC-3 = assay type: cell-based; details: MTT, 48 hours
Procedure: as §1, §2, §3, §4, §5, §6, §7, §8, §9

MCF-7 = assay type: cell-based; details: MTT, 48 hours
Procedure: as §1, §2, §3, §4, §5, §6, §7, §8, §9

DU-145 = assay type: cell-based; details: MTT, 48 hours
Procedure: as §1, §2, §3, §4, §5, §6, §7, §8, §9

NIH-3T3 = assay type: cell-based, murine; details: MTT, 48 hours; normal cells
Procedure: as §1, §2, §3, §4, §5, §6, §7, §8, §9

[1] = Mouse liver microsome stability; details: for half-life at 2 μM / remaining at 2 h, 2 μM: male; for half-life at 2 μM: ICR/CD-1, mouse; for remaining at 2 h, 2 μM: Institute of Cancer Research/CD-1, mouse
Procedure: An NADPH-regenerating system (1.7 mg/ml NADP, 7.8 mg/ml glucose-6-phosphate, 6 U/ml glucose-6-phosphate dehydrogenase in 2% w/v NaHCO3/10 mm MgCl2) was added for analysis of Phase I metabolism after heating both the regenerating solution and the sample tubes to 37 °C for 5 min in a 37 °C shaking water bath. The incubation was continued and at varying time points after addition of phase I cofactors, the reaction was stopped by the addition of 0.5 ml of acetonitrile containing IS and formic acid such that the final concentration of IS was 100 ng/ml and acid was 0.1%. Time 0 samples were stopped with the acetonitrile solution while still on ice prior to addition of the NADPH regenerating system and compound, which were subsequently added. The samples were incubated for 10 min at room temperature and then spun at 16,100g for 5 min in a microcentrifuge at 4 °C. The supernatant was analyzed by LC-MS/MS. The method described by McNaney et al. was used with modification for determination of metabolic stability half-life by substrate depletion ([59]). A “% remaining” value was used to assess the metabolic stability of a compound over time. The LC-MS/MS peak area of the incubated sample at each time point was divided by the LC-MS/MS peak area of the time 0 (T0) sample and multiplied by 100. The natural Log (LN) of the % remaining of compound was then plotted versus time (in min) and a linear regression curve was plotted going through y-intercept at LN (100).

[2] = In vivo toxicity of peptides alone; set-up: species or system athymic nude mice; details: for body weight / signs of distress / survival: 90 mg/Kg ip on day 5, day 10 and day 15; for survival: after 30 days; for signs of toxicity: three ip doses of 90 mg/Kg, 90 mg/kg
Procedure: MDA-MB-231 cells were implanted orthotopically into the second thoracic mammary fat pad of nude mice (n = 5). […] The control mice received vehicle only. B, at the end of the experiments, representative tumors were removed and photographed. […] The tumor sizes were measured by a digital caliper and shown as mean volume ± SDs every alternate day for 30 days. […] The statistical analysis was performed on GraphPad Prism 9.4.0. […] E–H, Western blots of cell lysates prepared from the tumors of untreated tumor (Vehicle) versus LA3IK and RP-7 for apoptosis-associated proteins. Number of tumors taken for study = 4 per group. Densitometry was determined and normalized to β-actin. Bar graphs are densitometric data (means ± SD). Data analyzed by one-way ANOVA. ∗p < 0.05,∗∗p <0.01 and ∗∗∗p < 0.001. Full-length representative blots are in Figure S8(2). […] The mice were monitored for changes in body weights as a surrogate marker for toxicity.
Cleaved caspase-3 plays a pivotal role in transmitting apoptotic signals through its enzymatic actions on downstream targets, including PARP and other substrates. PARP, which is an ADP-ribosylating enzyme, is essential for initiating various types of DNA repair processes ([29]). However, when it is cleaved by activated caspase-3, PARP loses its functionality, leading to the suppression of DNA repair mechanisms. This, in turn, may promote cell death through both caspase-dependent and caspase-independent pathways of apoptosis ([30]).

MDA-MB-231 cells [3] = test: Western blot of MIEN1 signaling pathway proteins; assay type: cell-based; details: mean values of immunoblot densitometry
Procedure: Cells were exposed to the peptides and subjected to Western blot analysis with the indicated antibodies. […] Cytoplasmic and nuclear cell lysate extracts of EGF only and EGF plus peptide-treated cells were probed for p65 and p50. Lamin A/C and β-actin were used as nuclear and cytoplasmic loading control respectively. Densitometry was determined with immunoblots (N = 3) and normalized to total protein or β-actin for whole cell lysates and cytoplasmic fraction of peptide-treated MDA-MB-231 cells. In case of nuclear lysates, the immunoblots were normalized with Lamin A/C. Bar graphs are densitometric data (means ± SD). […] EGF concentration: (10 ng/ml); Peptide concentration: 90 μM. EGF, epidermal growth factor; MIEN1, migration and invasion enhancer 1; NF-κB, nuclear factor kappa B.
Western blot analysis was performed according to standard protocols to assess the effects of MIEN1-derived peptides and their analogs on MDA-MB-231 cells and DU-145 cells. Cell lysates were prepared using radioimmunoprecipitation assay buffer and quantified for protein content by bicinchoninic acid method. […] Protein blocking with 5% bovine serum albumin was followed by incubation with primary antibodies specific to various proteins at 4 °C for 8 to 10 h. The membrane was then washed three times in Tris Buffered Saline with Tween 20 and incubated with the appropriate secondary antibody. Protein bands were visualized using the Alpha Innotech chemiluminescent detection system. In case of MDA-MB-231 cells, cytoplasmic and nuclear extracts were isolated to investigate the effects of peptides and/or EGF stimulation. Prior to exposure to the cells, the test peptides (90 μM) were incubated with EGF (10 ng/ml) in media at 4 °C for 15 min. The untreated MDA-MB-231 cells received EGF alone at the same concentration. The isolation of cytoplasmic and nuclear fractions was performed using the Subcellular Protein Fractionation Kit for Cultured Cells from Thermo Fisher Scientific (cat #78840) following the manufacturer's guidelines. For Western blot experiments, 20 μg of purified cytoplasmic and nuclear fraction was used.
Densitometry analysis of Western blot data was conducted using the AlphaView-FluorChem HD2 software of the Alpha Innotech chemiluminescent detection system (https://www.cambridgescientific.com/product/alpha-innotech-fluorchem-hd2-gel-imaging-system). To quantify band intensities, a uniform rectangle was drawn around each band, and background subtraction was applied to determine the total pixel density for each lane. Further calculations, including the determination of the ratio of phosphorylated proteins to total proteins or other loading controls, were carried out using Microsoft Excel. […]

[4] = Pharmacokinetic studies in CD1 mice; details: in vivo, iv, 5 mg/kg
MDA-MB-231 cells [5] = test: Wound healing assay; assay type: cell-based; details: equimolar peptide concentrations; compared to untreated cells
Procedure: (§10) The wound healing assay was performed using two breast cancer cell lines, MDA-MB-231 and MCF-7, and two prostate cancer cell lines, PC-3 and DU-145, to evaluate the antimigratory capacity of the peptides. […] The cells were grown to approximately 80% confluency in 12-well tissue culture plates, and a cell-free area was created by scraping the monolayer. The peptides were added, and the cells were incubated at 37 °C with 5% CO2 for 24 h. Wound closure was assessed by imaging the wounds at 0 and 24 h, and the wound areas were quantified using ImageJ software (https://imagej.net/ij/). In the transwell invasion assay, MDA-MB-231 cells were serum starved for 4 h followed by a pretreatment with increasing concentrations of each peptide in a 0.1% serum-containing DMEM for 24 h. The cells were then trypsinized, resuspended in same media for the second treatment of peptides, and counted. Next, 40,000 cells were resuspended in 0.1% serum containing DMEM and added to the upper chamber of Transwell plates (Corning Life Sciences) with a polyethylene terephthalate membrane (6.4 mm diameter, 8 μm pore size). The bottom chambers were filled with DMEM containing 10% FBS as a chemoattractant. The transwell plates were incubated at 37 °C with 5% CO2 for 24 h to allow the invasion of cells through the membrane. The invaded cells on the lower side of the membrane were fixed with 4% paraformaldehyde for 15 min, followed by a PBS wash. The membrane inserts were further fixed with ice-cold methanol for 20 min and stained with 0.25% (w/v) crystal violet. After incubation, the noninvasive cells on the upper surface of the membrane were gently removed using a cotton swab. Random fields were chosen for imaging, and the number of invaded cells was counted using ImageJ software. The results were expressed as the average number of invaded cells compared with the control.

MDA-MB-231 cells [6] = test: Transwell invasion assay; assay type: cell-based; details: 24 h
Procedure: as §10

| Molecule | IC50 (MDA-MB-231) | IC50 (PC-3) | IC50 (MCF-7) | IC50 (DU-145) | IC50 (NIH-3T3) | remaining at 2 h, 2 μM ([1]; microsomes, pH 7.5) | body weight / signs of distress [2] | survival [2] | signs of toxicity [2] | also measured |
| --- | --- | --- | --- | --- | --- | --- | --- | --- | --- | --- |
| Ac-RPPCVIL-NH2 [RP-7] | 139 ± 8.41 µM | 113 ± 8.02 µM | 110 ± 4.23 µM | 121 ± 7.08 µM | 221 ± 6.23 µM | 17.7% | No body weight loss or other signs of distress | All mice (N = 3) were alive | did not display any signs of toxicity; also recorded: no significant toxicity | half-life at 2 μM ([1]; microsomes, pH 7.5, Mouse Liver Microsome T1/2, 2 μM peptide): 0.872 h; half-life at 2 μM ([1]; microsomes, pH 7.5, Mouse Liver Microsome T ½ (h), 2 μM peptide, 0.5 mg/ml microsome protein, NADPH-regenerating system): 0.87 h |
| CC[C@@H](C)[C@@H](NC(=O)[C@H](NC(=O)[C@@H](CS)NC(=O)[C@H]1CCCN1C(=O)[C@H]1CCCN1C(=O)[C@@H](CCCNC(=N)N)NC(C)=O)C(C)C)C(=O)N[C@H](CC(C)C)C(N)=O [D-RP-7] (Ac-[dR][dP][dP][dC][dV][dI][dL]-NH2) | 95 ± 7.71 µM | 101 ± 5.73 µM | 90 ± 10.3 µM | 122 ± 6.56 µM | 210 ± 8.41 µM | 64.4% | – | – | – | greater inhibition of FAK phosphorylation than L-peptide counterpart (MDA-MB-231 cells [3]): 24.2%; greater inhibition of SRC phosphorylation than L-peptide counterpart (MDA-MB-231 cells [3]): 29.5%; half-life ([1]; mouse, microsomes, Mouse Liver Microsome T ½ (h), 2 μM peptide, 0.5 mg/ml microsome protein, NADPH-regenerating system): > 2 h; MRT ([4]; female, CD1, mouse): 5.7 h; Tmax ([4]; female, CD1, mouse): 4.8 min; Vd ([4]; female, CD1, mouse): 1700 L/kg; Cmax ([4]; mouse): 48 ng/mL; Vd ([4]; mouse): 1310 L/kg; clearance ([4]; mouse): 1420 mL/min/kg; half-life ([4]; mouse): 13.8 h |
| CC[C@H](C)[C@H](NC(=O)[C@H](C)NC(=O)[C@H](CC(C)C)NC(C)=O)C(=O)N[C@@H](C)C(=O)N[C@H](C(=O)N[C@@H](CCCCN)C(N)=O)C(C)C [LA3IK, LAIAVK] | – | – | – | – | – | – | No body weight loss or other signs of distress | All mice (N = 3) were alive | did not display any signs of toxicity; also recorded: no significant toxicity | half-life at 2 μM ([1]; liver microsomes, pH 7.5): > 2 h; remaining at 2 h, 2 μM ([1]; liver microsomes, pH 7.5): 83.7% |
| CC[C@H](C)[C@H](NC(=O)[C@@H](NC(=O)[C@H](CS)NC(=O)[C@@H]1CCCN1C(=O)[C@@H]1CCCN1C(=O)[C@H](CCCNC(=N)N)NC(=O)[C@H](CS)NC(C)=O)C(C)C)C(=O)N[C@@H](CC(C)C)C(N)=O [CR-8] (Ac-CRPPCVIL-NH2) | – | – | – | – | – | – | – | – | – | inhibition of migration (MDA-MB-231 cells [5]): limited inhibition; number of invaded MDA-MB-231 cells / inhibition of invasion (MDA-MB-231 cells [6]): limited inhibition |
